Reference: ChEMBL document CHEMBL4270518 (Eur J Med Chem, 2018)
Active and inactive are the calls of the source. The rule behind the calls is not given here.

Assays:
MV4-11 [1] = assay: Induction of apoptosis in human MV4-11 cells at 30 nM after 24 to 48 hrs by Annexin V-PI staining based flow cytometry; type: functional, cell-based
[2] = molecular target: T1, Protein deacetylase HDAC6 (Homo sapiens, UniProt Q9UBN7); assay: Inhibition of human recombinant HDAC6 using RHKKAcAMC as substrate by fluorescence assay
T1 sequence (Q9UBN7 whole entry): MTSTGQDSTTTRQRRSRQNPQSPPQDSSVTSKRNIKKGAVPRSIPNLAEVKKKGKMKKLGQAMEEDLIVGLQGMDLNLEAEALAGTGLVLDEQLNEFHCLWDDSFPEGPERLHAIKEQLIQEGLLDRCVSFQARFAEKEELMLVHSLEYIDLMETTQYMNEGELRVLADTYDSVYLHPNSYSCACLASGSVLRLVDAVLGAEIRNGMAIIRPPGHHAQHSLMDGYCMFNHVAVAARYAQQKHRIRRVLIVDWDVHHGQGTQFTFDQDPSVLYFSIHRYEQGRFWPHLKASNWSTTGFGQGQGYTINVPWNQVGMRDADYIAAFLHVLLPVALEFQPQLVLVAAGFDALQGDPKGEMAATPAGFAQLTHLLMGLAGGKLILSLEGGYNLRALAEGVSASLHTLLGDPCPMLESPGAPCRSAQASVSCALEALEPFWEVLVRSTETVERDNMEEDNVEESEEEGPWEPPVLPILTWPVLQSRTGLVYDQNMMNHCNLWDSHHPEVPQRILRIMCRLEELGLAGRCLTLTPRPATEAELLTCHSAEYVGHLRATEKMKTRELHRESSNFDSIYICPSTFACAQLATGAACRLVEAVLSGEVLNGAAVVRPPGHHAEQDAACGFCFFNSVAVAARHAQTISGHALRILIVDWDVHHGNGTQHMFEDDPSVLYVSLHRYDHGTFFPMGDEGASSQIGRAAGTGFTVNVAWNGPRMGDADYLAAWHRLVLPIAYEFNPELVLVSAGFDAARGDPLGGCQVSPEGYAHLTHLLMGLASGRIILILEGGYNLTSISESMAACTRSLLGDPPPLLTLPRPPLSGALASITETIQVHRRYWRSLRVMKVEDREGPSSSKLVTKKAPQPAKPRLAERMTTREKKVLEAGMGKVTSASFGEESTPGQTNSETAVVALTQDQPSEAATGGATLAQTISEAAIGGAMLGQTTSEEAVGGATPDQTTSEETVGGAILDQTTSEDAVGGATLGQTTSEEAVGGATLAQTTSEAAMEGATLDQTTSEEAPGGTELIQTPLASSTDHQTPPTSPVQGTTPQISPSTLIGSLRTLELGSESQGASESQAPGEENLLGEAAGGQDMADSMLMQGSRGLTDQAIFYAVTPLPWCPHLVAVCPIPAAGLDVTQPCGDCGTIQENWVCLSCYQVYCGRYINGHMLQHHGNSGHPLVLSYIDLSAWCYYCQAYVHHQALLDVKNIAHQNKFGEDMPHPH

MV4-11 [3] = assay: Inhibition of class 1 HDAC in human MV4-11 cells assessed as hyperacetylation of histone H3 at 200 nM after 24 hrs by Western blot analysis; type: cell-based
MV4-11 [4] = assay: Induction of apoptosis in human MV4-11 cells at 5 uM after 24 to 48 hrs by Annexin V-PI staining based flow cytometry; type: functional, cell-based
Histone deacetylase 4 = Histone deacetylase 4 (Homo sapiens, UniProt P56524); assay: Inhibition of human recombinant HDAC4 using fluorogenic trifluoroacetyl lysine as substrate by fluorescence assay
MV4-11 [5] = assay: Induction of apoptosis in human MV4-11 cells up to 1 uM after 24 to 48 hrs by Annexin V-PI staining based flow cytometry; type: functional, cell-based
Histone deacetylase 1 = Histone deacetylase 1 (Homo sapiens, UniProt Q13547); assay: Inhibition of human recombinant HDAC1 using RHKKAcAMC as substrate by fluorescence assay
Histone deacetylase 8 = molecular target: T2, Histone deacetylase 8 (Homo sapiens, UniProt Q9BY41); assay: Inhibition of human recombinant HDAC8 using RHKAcKAcAMC as substrate by fluorescence assay
T2 sequence (Q9BY41 whole entry): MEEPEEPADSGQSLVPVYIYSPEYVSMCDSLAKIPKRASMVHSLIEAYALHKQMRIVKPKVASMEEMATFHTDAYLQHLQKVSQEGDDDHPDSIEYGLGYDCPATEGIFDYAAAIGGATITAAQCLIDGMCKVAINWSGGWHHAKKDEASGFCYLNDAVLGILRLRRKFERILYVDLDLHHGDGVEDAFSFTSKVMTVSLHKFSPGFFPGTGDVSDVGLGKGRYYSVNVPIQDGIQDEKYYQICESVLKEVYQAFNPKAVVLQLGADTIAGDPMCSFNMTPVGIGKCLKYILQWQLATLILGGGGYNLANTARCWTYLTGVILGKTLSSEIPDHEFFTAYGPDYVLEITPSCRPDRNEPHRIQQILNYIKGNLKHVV

MV4-11 [6] = assay: Cell cycle arrest in human MV4-11 cells up to 1 uM after 24 to 48 hrs by propidium iodide staining based flow cytometry; type: functional
Histone deacetylase 2 = Histone deacetylase 2 (Homo sapiens, UniProt Q92769); assay: Inhibition of human recombinant HDAC2 using RHKKAcAMC as substrate by fluorescence assay
[7] = molecular target: T3, Polyamine deacetylase HDAC10 (Homo sapiens, UniProt Q969S8); assay: Inhibition of human recombinant HDAC10 using RHKKAcAMC as substrate by fluorescence assay
T3 sequence (Q969S8 whole entry): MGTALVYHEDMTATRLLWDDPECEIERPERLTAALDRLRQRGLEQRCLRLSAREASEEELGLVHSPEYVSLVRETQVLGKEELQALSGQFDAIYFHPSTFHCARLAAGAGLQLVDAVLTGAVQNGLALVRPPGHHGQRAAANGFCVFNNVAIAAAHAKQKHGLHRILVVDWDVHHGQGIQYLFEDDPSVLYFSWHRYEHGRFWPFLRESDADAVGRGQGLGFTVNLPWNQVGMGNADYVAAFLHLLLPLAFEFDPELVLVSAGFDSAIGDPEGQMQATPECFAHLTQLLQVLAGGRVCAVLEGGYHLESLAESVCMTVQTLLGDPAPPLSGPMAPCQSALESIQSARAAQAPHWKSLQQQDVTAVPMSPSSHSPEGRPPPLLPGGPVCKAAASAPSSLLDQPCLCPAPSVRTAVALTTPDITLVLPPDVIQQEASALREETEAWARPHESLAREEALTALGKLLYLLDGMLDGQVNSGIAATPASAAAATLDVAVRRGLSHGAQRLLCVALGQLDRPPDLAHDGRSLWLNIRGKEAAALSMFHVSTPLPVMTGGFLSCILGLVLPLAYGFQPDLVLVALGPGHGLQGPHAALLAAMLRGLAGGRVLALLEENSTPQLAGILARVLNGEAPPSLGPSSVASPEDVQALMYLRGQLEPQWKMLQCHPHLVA

[8] = molecular target: T4, Protein deacetylase HDAC6 (Homo sapiens) (UniProt Q9UBN7); assay: Inhibition of HDAC6 in human MV4-11 cells assessed as accumulation of acetylated alpha-tubulin at 200 nM by Western blot analysis; type: cell-based; conditions: TDE = time-dependent effect
T4 sequence (whole entry): T1 sequence (Q9UBN7 whole entry)

Homo sapiens [9] = species on record: Homo sapiens; assay: Selectivity ratio of IC50 for human recombinant HDAC4 to IC50 for human recombinant HDAC6
Homo sapiens [10] = species on record: Homo sapiens; assay: Selectivity ratio of IC50 for human recombinant HDAC1 to IC50 for human recombinant HDAC6
[11] = molecular target: T4, Protein deacetylase HDAC6 (Homo sapiens); assay: Inhibition of HDAC6 in human MV4-11 cells assessed as accumulation of acetylated alpha-tubulin at 50 nM after 24 hrs by Western blot analysis; type: cell-based
Homo sapiens [12] = species on record: Homo sapiens; assay: Selectivity ratio of IC50 for human recombinant HDAC8 to IC50 for human recombinant HDAC6
MV4-11 [13] = assay: Inhibition of class 1 HDAC in human MV4-11 cells assessed as hyperacetylation of histone H3 at higher concentration after 24 hrs by Western blot analysis; type: cell-based
Homo sapiens [14] = species on record: Homo sapiens; assay: Selectivity ratio of IC50 for human recombinant HDAC2 to IC50 for human recombinant HDAC6
[15] = molecular target: T4, Protein deacetylase HDAC6 (Homo sapiens); assay: Inhibition of HDAC6 in human MV4-11 cells assessed as accumulation of acetylated alpha-tubulin at 200 nM after 10 to 1440 mins by Western blot analysis; type: cell-based

Histone deacetylase 2, sequence (Q92769 whole entry): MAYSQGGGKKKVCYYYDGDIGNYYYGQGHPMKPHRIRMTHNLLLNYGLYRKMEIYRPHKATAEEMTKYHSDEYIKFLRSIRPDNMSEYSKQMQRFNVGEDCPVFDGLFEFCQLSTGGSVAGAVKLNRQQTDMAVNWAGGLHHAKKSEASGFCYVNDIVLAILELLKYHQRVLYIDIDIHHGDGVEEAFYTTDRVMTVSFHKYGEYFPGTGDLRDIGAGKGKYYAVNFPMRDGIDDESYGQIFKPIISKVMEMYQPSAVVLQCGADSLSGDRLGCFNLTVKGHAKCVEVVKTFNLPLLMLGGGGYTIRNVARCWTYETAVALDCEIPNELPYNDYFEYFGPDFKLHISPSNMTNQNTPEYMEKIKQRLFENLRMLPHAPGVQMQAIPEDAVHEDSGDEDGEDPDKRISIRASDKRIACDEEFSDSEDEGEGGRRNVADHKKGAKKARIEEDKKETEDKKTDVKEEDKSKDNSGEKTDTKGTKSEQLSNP
Histone deacetylase 1, sequence (Q13547 whole entry): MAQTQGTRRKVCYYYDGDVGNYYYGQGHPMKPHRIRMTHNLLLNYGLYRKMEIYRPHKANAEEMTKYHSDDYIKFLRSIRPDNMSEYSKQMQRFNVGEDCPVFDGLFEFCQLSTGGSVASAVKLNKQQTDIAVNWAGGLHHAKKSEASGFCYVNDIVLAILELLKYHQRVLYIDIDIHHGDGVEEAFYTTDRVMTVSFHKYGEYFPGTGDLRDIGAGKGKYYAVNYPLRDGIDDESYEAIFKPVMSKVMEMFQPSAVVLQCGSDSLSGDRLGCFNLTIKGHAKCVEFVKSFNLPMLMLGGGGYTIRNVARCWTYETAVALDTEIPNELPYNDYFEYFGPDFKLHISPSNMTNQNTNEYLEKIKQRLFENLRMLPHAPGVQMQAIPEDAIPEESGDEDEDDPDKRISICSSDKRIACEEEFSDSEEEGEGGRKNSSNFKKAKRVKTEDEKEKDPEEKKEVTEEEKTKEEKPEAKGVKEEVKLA
Histone deacetylase 4, sequence (P56524 whole entry): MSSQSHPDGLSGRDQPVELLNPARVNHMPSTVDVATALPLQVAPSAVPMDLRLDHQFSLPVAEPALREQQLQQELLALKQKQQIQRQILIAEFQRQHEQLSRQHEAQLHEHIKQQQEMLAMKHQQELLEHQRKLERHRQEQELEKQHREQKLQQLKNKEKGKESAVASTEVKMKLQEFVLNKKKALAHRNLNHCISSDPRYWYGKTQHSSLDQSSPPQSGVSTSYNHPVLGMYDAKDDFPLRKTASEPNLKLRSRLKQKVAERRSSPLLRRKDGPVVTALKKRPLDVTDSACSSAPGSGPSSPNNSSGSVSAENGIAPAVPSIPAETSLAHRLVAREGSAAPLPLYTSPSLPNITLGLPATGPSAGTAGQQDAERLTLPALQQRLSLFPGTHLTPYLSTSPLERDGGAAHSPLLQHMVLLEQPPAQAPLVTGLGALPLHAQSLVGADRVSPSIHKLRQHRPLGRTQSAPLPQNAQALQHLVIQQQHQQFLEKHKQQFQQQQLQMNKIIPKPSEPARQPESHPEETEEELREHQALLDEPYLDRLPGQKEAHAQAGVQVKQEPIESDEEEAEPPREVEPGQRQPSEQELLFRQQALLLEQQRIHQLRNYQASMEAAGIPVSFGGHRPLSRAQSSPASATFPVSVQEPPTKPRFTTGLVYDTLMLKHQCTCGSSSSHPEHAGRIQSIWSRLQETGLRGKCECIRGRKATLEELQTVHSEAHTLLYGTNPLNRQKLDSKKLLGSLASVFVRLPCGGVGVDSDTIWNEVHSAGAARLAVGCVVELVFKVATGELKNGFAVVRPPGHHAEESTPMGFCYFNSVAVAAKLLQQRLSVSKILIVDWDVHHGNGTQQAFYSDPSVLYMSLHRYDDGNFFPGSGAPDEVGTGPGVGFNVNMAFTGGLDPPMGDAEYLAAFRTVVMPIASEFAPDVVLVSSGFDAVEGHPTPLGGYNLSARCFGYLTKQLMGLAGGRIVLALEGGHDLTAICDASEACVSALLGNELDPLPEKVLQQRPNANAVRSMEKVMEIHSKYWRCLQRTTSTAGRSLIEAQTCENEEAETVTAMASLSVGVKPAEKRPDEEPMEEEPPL

Row | SMILES | IC50 [2] [nM] | inhibition (MV4-11 [3]) | further results
1 | Cc1[nH]c2ccccc2c1CCNCc1ccc(/C=C/C(=O)NO)cc1 |  |  | Activity (MV4-11 [1]): Active
2 | CCCN1CC(=O)N2[C@H](C)c3c(c4ccccc4n3Cc3ccc(C(=O)NO)cc3)C[C@H]2C1=O | 60.7 |  | 
3 | CN1CC(=O)N2Cc3c(c4ccccc4n3Cc3ccc(C(=O)NO)cc3)CC2C1=O (centres undefined) | 13.6 |  | 
4 | CCN1CC(=O)N2Cc3c(c4ccccc4n3Cc3ccc(C(=O)NO)cc3)CC2C1=O (centres undefined) | 8.03 | Active | 
5 | CCCN1CC(=O)N2[C@H](Cc3c(n(Cc4ccc(C(=O)NO)cc4)c4ccccc34)[C@H]2C)C1=O | 18.5 |  | 
6 | CCCCN1C(=O)C2Cc3c(n(Cc4ccc(C(=O)NO)cc4)c4ccccc34)CN2C1=O (centres undefined) | 9.32 |  | 
7 | CN1C(=O)C2Cc3c(n(Cc4ccc(C(=O)NO)cc4)c4ccccc34)CN2C1=O (centres undefined) | 2.38 |  | 
8 | CCCN1C(=O)C2Cc3c(n(Cc4ccc(C(=O)NO)cc4)c4ccccc34)CN2C1=O (centres undefined) | 10.1 | Active | 
9 | Nc1ccccc1NC(=O)c1ccc(CNC(=O)OCc2cccnc2)cc1 |  | Active | Activity (MV4-11 [4]): Active
10 | CCCN1CC(=O)N2[C@H](Cc3c(n(Cc4ccc(C(=O)NO)cc4)c4ccccc34)[C@@H]2C)C1=O | 1.8 |  | IC50 (Histone deacetylase 4): 1440 nM; Activity (MV4-11 [5]): inactive; IC50 (Histone deacetylase 1): 1050 nM; IC50 (Histone deacetylase 8): 168 nM; Activity (MV4-11 [6]): inactive; IC50 (Histone deacetylase 2): 1870 nM; IC50 [7]: 1510 nM
11 | CC(C)CN1CC(=O)N2Cc3c(c4ccccc4n3Cc3ccc(C(=O)NO)cc3)CC2C1=O (centres undefined) | 3.78 | Active | 
12 | CCCN1CC(=O)N2Cc3c(c4ccccc4n3Cc3ccc(C(=O)NO)cc3)CC2C1=O (centres undefined) | 3.73 | Active | inhibition [8]: Tde; IC50 (Histone deacetylase 4): 20500 nM; Activity (MV4-11 [5]): inactive; IC50 (Histone deacetylase 1): 8450 nM; Ratio IC50 (Homo sapiens [9]): 5500; IC50 (Histone deacetylase 8): 747 nM; Activity (MV4-11 [6]): inactive; Ratio IC50 (Homo sapiens [10]): 2260; inhibition [11]: Active; Ratio IC50 (Homo sapiens [12]): 200; inhibition (MV4-11 [13]): Active; Ratio IC50 (Homo sapiens [14]): 900; IC50 (Histone deacetylase 2): 3340 nM; inhibition [15]: Active; IC50 [7]: 39500 nM
13 | CCCN1CC(=O)N2Cc3c(c4cc(OC)ccc4n3Cc3ccc(C(=O)NO)cc3)CC2C1=O (centres undefined) | 1.66 |  | 
14 | CC(C)CCN1CC(=O)N2Cc3c(c4ccccc4n3Cc3ccc(C(=O)NO)cc3)CC2C1=O (centres undefined) | 24.1 | Active | 
15 | CCCN1CC(=O)N2[C@@H](Cc3c(n(Cc4ccc(C(=O)NO)cc4)c4ccccc34)[C@@H]2C)C1=O | 83.5 |  | 
16 | CCN1C(=O)C2Cc3c(n(Cc4ccc(C(=O)NO)cc4)c4ccccc34)CN2C1=O (centres undefined) | 4.54 | Active | 
17 | CCCN1CC(=O)N2Cc3c(c4cc(OCc5ccccc5)ccc4n3Cc3ccc(C(=O)NO)cc3)CC2C1=O (centres undefined) | 1.25 |  | 
18 | CCCCN1CC(=O)N2Cc3c(c4ccccc4n3Cc3ccc(C(=O)NO)cc3)CC2C1=O (centres undefined) | 3.26 | Active | 
19 | CCCN1CC(=O)N2Cc3c(c4cc(O)ccc4n3Cc3ccc(C(=O)NO)cc3)CC2C1=O (centres undefined) | 0.89 |  | 
